We go through 25 molecules from patent US20230391779A1, “BICYCLIC COMPOUNDS, COMPOSITIONS AND USE THEREOF” (Betta Pharmaceuticals Co., Ltd., priority 2020, published 2023).

Each structure is given as a SMILES string.

By EC50 is commonly meant the concentration at which the effect is half-maximal.

The test system of this assay is TEAD-YAP/TAZ interaction. The assay can be described thus: CTGF ELISA assay. It counts as cell-based, human. The following applies: CTGF in culture supernatant of NCI-H2052 cells, 24 hours with compound. As to the method: The detection of CTGF expression level can assessed the binding activity of TEAD-YAP/TAZ transcription factor, and the CTGF expression level was quantified by SimpleStep ELISA® kit (Abcam, ab261851).
NCI-H2052 cells (Purchased from ATCC) were cultured in RPMI 1640 medium, adding 10% FBS and 1% Penicillin-Streptomycin Solution and 1 mM Sodium pyruvate. The day before compounds treatment, the cultured cells were washed with PBS and digested with trypsin, then centrifuged and collected. Discarded the supernatant, the cells were resuspended in fresh complete medium. After cells counted, cells were seeded at 6500 cells/well in 96-well plates. And then cells were cultured overnight in incubator (37° C., 5% CO2).
After the cells were cultured overnight, discarded the culture supernatant, then washed with PBS solution, cells were incubated with 200 μl medium containing compounds in each well. The starting concentration was 10 μM and serial dilution in DMSO and medium were performed to achieve a final DMSO concentration of 0.5% (Final compounds concentration were 10000, 2500, 625, 156, 39.1, 9.77, 2.44, 0.61 nM, 0 nM (0.5% DMSO), The cells were then cultured in incubator (37° C., 5% CO2). Cultured for 24 hours, the cells were centrifuged at 1500 RPM at 4° C. for 5 minutes, and then 50 μl of culture supernatant were tested for CTGF ELISA assay.
The Human CTGF SimpleStep ELISA® Kit (Abcam, ab261851) employs an affinity tag labeled capture antibody and a reporter conjugated detector antibody which immunocapture the sample analyte in solution. This entire complex (capture antibody/analyte/detector antibody) is in turn immobilized via immunoaffinity of an anti-tag antibody coating the well. To perform the assay, samples or standards are added to the wells, followed by the antibody mix (capture antibody/detector antibody). After incubation, the wells are washed to remove unbound material. TMB Development Solution is added and during incubation is catalyzed by HRP, generating blue coloration. This reaction is then stopped by addition of Stop Solution completing any color change from blue to yellow. Signal is generated proportionally to the amount of bound analyte and the intensity is measured at 450 nm. Firstly, prepare all reagents, samples, and standards as instructed. Add 50 μl standard or sample to appropriate wells. Then add 50 μl of the Antibody Cocktail to each well. Seal the plate and incubate for 1 hour at room temperature on a plate shaker. Wash each well with Wash Buffer three times. Add 100 μl of TMB Development Solution to each well and incubate for 10 minutes in the dark on a plate shaker. Add 100 μl of Stop Solution to each well. Shake plate on a plate shaker for 1 minute to mix. Record the OD at 450 nm. Determine the concentration of the target protein in the sample by the standard curve.
EC50 value was determined by fitting the concentration response curves using GraphPad Prism software. The compounds of the present invention were tested for their capacity to inhibit TEAD-YAP/TAZ interaction according to the fitted curves of CTGF concentration response to compounds.
(An ELISA detects its analyte on a solid surface through an enzyme-linked reagent.)
In the case of `C=C(F)C(=O)NCC(C=O)n1nc(-c2ccc(C(F)(F)F)cc2)c2cccnc21` (stereo not shown) [Com. EX.1, 2-fluoro-N-(3-oxo-2-(3-(4-(trifluoromethyl)phenyl)-1H-pyrazolo[3,4-b]pyridin-1-yl)propyl)acrylamide, reference compound], the EC50 was greater than 10000 nM.
As for `C=C(F)C(=O)NCC(C(=O)O)n1nc(-c2ccc(C(F)(F)F)cc2)c2cccnc21` (stereo not shown) [Com. EX.2, 3-(2-fluoroacrylamido)-2-(3-(4-(trifluoromethyl)phenyl)-1H-pyrazolo[3,4-b]pyridin-1-yl)propanoic acid, reference compound], the concentration for a half-maximal effect (EC50) is greater than 10000 nM.
Under `CC(=O)N1CCC(n2nc(-c3ccc(C(F)(F)F)cc3)c3ccccc32)C1` (stereo not shown) [Com. EX.3, 1-(3-(3-(4-(trifluoromethyl)phenyl)-1H-indazol-1-yl)pyrrolidin-1-yl)ethan-1-one, reference compound] stands greater than 10000 nM; under `C=C(F)C(=O)N1CC(n2c(=O)n(-c3ccc(Oc4ccccc4)cc3)c3cnccc32)C1` [Com. EX.4, 1-(1-(2-fluoroacryloyl)azetidin-3-yl)-3-(4-phenoxyphenyl)-1,3-dihydro-2H-imidazo[4,5-c]pyridin-2-one, reference compound], greater than 10000 nM.
Under `CCOC(=O)N1CC(n2nc(-c3ccc(OC(F)(F)F)cc3)c3cccnc32)C1` [Com. EX.5, ethyl 3-(3-(4-(trifluoromethoxy)phenyl)-1H-pyrazolo[3,4-b]pyridin-1-yl)azetidine-1-carboxylate, reference compound] stands greater than 10000 nM; under `C=CC(=O)N1CCC(n2nc(-c3ccc(C(F)(F)F)cc3)c3nc[nH]c(=O)c32)C1` (stereo not shown) [Compound 2, 1-(1-acryloylpyrrolidin-3-yl)-3-(4-(trifluoromethyl)phenyl)-1,6-dihydro-7H-pyrazolo[4,3-d]pyrimidin-7-one], 25 nM; under `C=CC(=O)N1CCC(c2nn(-c3ccc(C(F)(F)F)cc3)c3ccccc23)C1` (stereo not shown) [Compound 4, 1-(3-(1-(4-(trifluoromethyl)phenyl)-1H-indazol-3-yl)pyrrolidin-1-yl)prop-2-en-1-one], 15.5 nM.
On to `C=CC(=O)N1CCC(n2nc(-c3ccc(C(F)(F)F)cc3)c3ncn(C)c(=O)c32)C1` (stereo not shown) [Compound 7, 1-(1-acryloylpyrrolidin-3-yl)-6-methyl-3-(4-(trifluoromethyl)phenyl)-1,6-dihydro-7H-pyrazolo[4,3-d]pyrimidin-7-one], for which the EC50 turned out to be 5 nM.
Take `C=C(F)C(=O)N1CC(n2nc(-c3ccc(C(F)(F)F)cc3)c3cccnc32)C1C` (stereo not shown) [Compound 9, 2 fluoro-1-(2-methyl-3-(3-(4-(trifluoromethyl)phenyl)-1H-pyrazolo[3,4-b]pyridin-1 yl)azetidin-1 yl)prop-2-en-1-one]: the EC50 stood at 1.4 nM.
Under `C=C(F)C(=O)N1CC(n2nc(Nc3ccc(C(F)(F)F)cc3)c3ccc(C)nc32)C1` [Compound 11, 2 fluoro-1-(3-(6-methyl-3-((4-(trifluoromethyl)phenyl)amino)-1H-pyrazolo[3,4-b]pyridin-1 yl)azetidin-1 yl)prop-2-en-1-one] stands 0.7 nM.
Under `C=CC(=O)NC1CN(c2nc(-c3ccc(C(F)(F)F)cc3)n3ccccc23)C1` [Compound 13, N-(1-(3-(4-(trifluoromethyl)phenyl)imidazo[1,5-a]pyridin-1 yl)azetidin-3 yl)acrylamide] stands 20 nM.
On to `C=CC(=O)N1CC(n2nc(-c3ccc(C(F)(F)F)cc3)c3cccc(NC(C)=O)c32)C1` [Compound 15, N-(1-(1-acryloylazetidin-3 yl)-3-(4-(trifluoromethyl)phenyl)-1H-indazol-7-yl)acetamide], for which the EC50 came to 35 nM.
For `C=CC(=O)N1CCC(n2nc(-c3ccc(C(F)(F)F)cc3)c3nccnc32)C1` (stereo not shown) [Compound 18, 1-(3-(3-(4-(trifluoromethyl)phen-yl)-1H-pyrazolo[3,4-b]pyrazin-1-yl)pyrrolidin-1-yl)prop-2-en-1-one], the EC50 turned out to be 10 nM.
For the molecule `C=CC(=O)N1CCC(n2nc(-c3ccc(C(F)(F)F)cc3)c3ccncc32)C1` (stereo not shown) [Compound 22, 1-(3-(3-(4-(trifluoromethyl)phen-yl)-1H-pyrazolo[3,4-c]pyridin-1-yl)pyrrolidin-1-yl)prop-2-en-1-one], the EC50 worked out at 20 nM.
As to `C=CC(=O)N1CCC(n2nc(-c3ccc(C(F)(F)F)cc3)c3cnccc32)C1` (stereo not shown) [Compound 23, 1-(3-(3-(4-(trifluoromethyl)phen-yl)-1H-pyrazolo[4,3-c]pyridin-1-yl)pyrrolidin-1-yl)prop-2-en-1-one], the EC50 came out at 16 nM.
Regarding `C=CC(=O)N1CCC(n2nc(-c3ccc(C(F)(F)F)cc3F)c3cccnc32)C1` (stereo not shown) [Compound 29, 1-(3-(3-(2-fluoro-4-(trifluoro-methyl)phenyl)-1H-pyrazolo[3,4-b]pyridin-1-yl)pyrrolidin-1-yl)-prop-2-en-1-one], the EC50 came out at 12 nM.
Consider `C=CC(=O)N1CCCC(n2nc(-c3ccc(C(F)(F)F)cc3)c3cccnc32)C1` (stereo not shown) [Compound 33, 1-(3-(3-(4-(trifluoromethyl)phen-yl)-1H-pyrazolo[3,4-b]pyridin-1-yl)piperidin-1-yl)prop-2-en-1-one], for which the EC50 is 32 nM.
Consider `C=CC(=O)N1CCC(Cn2nc(-c3ccc(C(F)(F)F)cc3)c3ccccc32)C1` (stereo not shown) [Compound 34, 1-(3-((3-(4-(trifluoromethyl)phen-yl)-1H-indazol-1-yl)methyl)-pyrrolidin-1-yl)prop-2-en-1-one], for which the EC50 is 137 nM.
Regarding `C=CC(=O)NC1CCC(n2nc(-c3ccc(C(F)(F)F)cc3)c3ccccc32)C1` (stereo not shown) [Compound 37, N-(3-(3-(4-(trifluoromethyl)phen-yl)-1H-indazol-1-yl)cyclopentyl)-acrylamide], the EC50 came to 42 nM.
Under `C=CC(=O)N1CCC(n2nc(-c3ccc(C(F)(F)F)cc3)c3cccc(C)c32)C1` (stereo not shown) [Compound 39, 1-(3-(7-methyl-3-(4-(trifluoro-methyl)phenyl)-1H-indazol-1-yl)pyrrolidin-1-yl)prop-2-en-1-one] stands 14 nM; under `C=CC(=O)N1CCC(n2nc(-c3ccc(C(F)(F)F)cc3)c3cccc(C(N)=O)c32)C1` (stereo not shown) [Compound 42, 1-(1-acryloylpyrrolidin-3-yl)-3-(4-(trifluoromethyl)phenyl)-1H-indazole-7-carboxamide], 14 nM; under `C=CC(=O)N1CCN(C(=O)c2nn(-c3ccc(C(F)(F)F)cc3)c3ccccc23)CC1` [Compound 43, 1-(4-(1-(4-(trifluoromethyl)phen-yl)-1H-indazole-3-carbonyl)-piperazin-1-yl)prop-2-en-1-one], 11 nM.
Take `C=CC(=O)N1CCC(n2nc(-c3ccc(C(F)(F)F)cc3)c3cccc(OC)c32)C1` (stereo not shown) [Compound 44, 1-(3-(7-methoxy-3-(4-(trifluoro-methyl)phenyl)-1H-indazol-1-yl)-pyrrolidin-1-yl)prop-2-en-1-one]: the concentration for a half-maximal effect (EC50) worked out at 20 nM.
Under `C=CC(=O)N1CCC(n2nc(-c3ccc(C(F)(F)F)cc3)c3cccc(Cl)c32)C1` (stereo not shown) [Compound 45, 1-(3-(7-chloro-3-(4-(trifluoro-methyl)phenyl)-1H-indazol-1-yl)-pyrrolidin-1-yl)prop-2-en-1-one] stands 15 nM.
With `C=CC(=O)N1CCC(n2nc(-c3ccc(C(F)(F)F)cc3)c3cccc(C(F)(F)F)c32)C1` (stereo not shown) [Compound 46, 1-(3-(7-(trifluoromethyl)-3-(4-(trifluoromethyl)phenyl)-1H-indazol-1-yl)pyrrolidin-1-yl)-prop-2-en-1-one], the concentration giving a half-maximal response (EC50) stood at 12 nM.
